# Source: patent publication US20200399329A1, “ANTIMICROBIAL PEPTIDES” (priority 2015, published 2020)
# Entries after “also recorded” stand apart in the source; their conditions may differ. Like-named read-outs stand apart in the source and are kept apart here. Where a SMILES comes first, the peptide text is derived from it.
# Key:
# [1] = Preliminary topical safety in mice; format: in vivo; details: topical single dose 0.5-4 mg/kg
# Experimental: The antimicrobial peptide OMN6 was administered to mice in order to evaluate and quantify whether toxic effects are present. OMN6 peptide (C195H332N56O49S3) was administered topically according to concentrations and groups detailed in Table 9.
# Mice approved for this experiment: Outbred Hsd:ICR (CD-1®)—weight 18-20 g. Saline solution (0.9% NaCl) as sham treatment or OMN6 dissolved in saline were administered directly onto the skin of mice after the hair was shaved. A total volume of 16 μl was administered to each animal.
# In this experiment, the peptide OMN6 of the invention was administered in a single dose, at four different concentrations (mg/kg). Mortality of mice in all experiment groups was monitored in comparison to a Sham (CTRL) group. Food and water consumption, post treatment, was monitored by individual weight measurements once every two days. At the end of the experiment, blood was taken from all animals and 200 μl of blood was separated and plasma was analyzed for erythrocyte hemolysis. • Experimental Map: • 1. Mice (six per group) were given a single-dose administration on day 1, according to group specification (Table 9). Food and water consumption (weight analysis) along with mortality of mice in all groups were monitored for four days post treatment. At the end of the five day trial, the animals were sacrificed. • 2. Free Hgb (hemoglobin) assay was performed on day 5, on all samples from all groups, for erythrocyte hemolysis analysis. • 3. Water/food availability, temperature and other conditions remained unchanged between the groups for the entire five day trial. • 4. Erythrocyte hemolysis analysis was performed via hemoglobin assay kit (Sigma-Aldrich, 3 Plaut St. Rehovot, Israel).
# GFPuv E. coli = experiment: GFP leakage from lysed GFPuv E. coli; format: cell-based; details: 50 μM for 30 minutes
# Experimental: In order to determine and evaluate the Mechanism of Action (MOA) by which the peptides achieve the remarkable antimicrobial effect they exert, the following experiments were conducted: GFPuv E. coli bacteria are a strain that upon induction expresses green fluorescent protein (GFP). The GFP fluorescence can be detected at 395/509 nm, while live bacteria can be detected via absorbance at 600 nm (OD600).
# GFPuv E. coli bacteria ubiquitously express GFP in their cytoplasm upon induction and the fluorescent protein can be detected and visualized. […]
# In another experiment, bacteria were grown and induced to express GFP. […] The supernatant (sup) from the two experiment groups CTRL and OMN6, was separated from the pellet and analyzed for the level of fluorescence units (FU) (see FIG. 4B). […] Fluorescence was detected only inside the bacteria which were concentrated in the pellet at the bottom of the tube. […] Both supernatants were probed for the presence of bacteria via absorbance at 600 nm and both supernatants were completely void of bacteria cells (data not shown). […] Thus, in the CTRL group, where the bacteria are intact, no fluorescence is detected in the sup while in the sup from the group treated with OMN6, the GFP that leaked out of the lysed cells is detected.
# E. coli = experiment: Antimicrobial activity after pre-treatment of peptide with Proteinase-K; format: cell-based; details: 12.5 μM peptide pre-treated with 20 ng ProtK for 2 hours at 37° C., 18 hours
# Experimental: The susceptibility of OMN6/CecA to proteolytic degradation was assessed and the effects of stability on activity were determined. Native peptide-CecA and engineered peptide-OMN6 were incubated with 20 ng of Proteinase-K (ProtK) at 37° C. for two hours (left bars and right bars, respectively). E. coli at 500,000 CFU/ml were incubated for 18 hours with either CecA or OMN6 pretreated with ProtK. After the incubation, bacterial survival was determined via absorption at OD600 nm and via CFU count on agar plates.
# A. baumannii BAA-1793 = format: cell-based, Acinetobacter baumannii; details: FIG. 7
# Experimental: In order to determine the Minimal Bactericidal Concentration (MBC) values of the peptides, colony formation of various bacteria strains was monitored and determined after treatment with the peptides of the invention. Multi-Drug Resistant A. baumannii bacteria were cultured with or without OMN6 in increasing concentrations, as is detailed in FIG. 6 and Example 6. Immediately afterwards, samples of each experimental group were diluted to 1×10^4 to 1×10^6 as necessary, and further, the samples were plated on appropriate medium-agar plates. All the plates were incubated at 37° C. for 24-48 hours. Colonies were counted and CFU/ml in the original sample, prior to plating, were calculated and determined. An example of the plates, after incubation, is presented in FIG. 7 where the plate on the left side of the image is the CTRL sample treated with DDW and in the right side of the image increasing concentrations of OMN6 are presented, as specified therein.
# The experimental system and parameters described here were used to determine the MBC values of OMN2, OMN6, OMN7 and OMN11 on various bacteria strains with and without the supplementation of 10% FBS (Table 6 and Table 8).
structure (smiles),measurement,setting,value
CC[C@H](C)[C@H](NC(=O)CNC(=O)[C@H](CC(=O)O)NC(=O)[C@H](CCCNC(=N)N)NC(=O)[C@@H](NC(=O)[C@H](CC(N)=O)NC(=O)[C@H](CCC(N)=O)NC(=O)CNC(=O)[C@@H](NC(=O)[C@H](CCCCN)NC(=O)[C@H](CCC(=O)O)NC(=O)[C@@H](NC(=O)[C@H](CCCCN)NC(=O)[C@H](CCCCN)NC(=O)[C@H](Cc1ccccc1)NC(=O)[C@H](CC(C)C)NC(=O)[C@H](CCCCN)NC(=O)[C@H](Cc1c[nH]c2ccccc12)NC(=O)[C@H](CCCCN)NC(=O)[C@H](CS)NC(=O)[C@@H](N)CCSC)[C@@H](C)CC)C(C)C)[C@@H](C)CC)C(=O)N[C@H](C(=O)N[C@@H](CCCCN)C(=O)N[C@@H](C)C(=O)NCC(=O)N1CCC[C@H]1C(=O)N[C@@H](C)C(=O)N[C@H](C(=O)N[C@@H](C)C(=O)N[C@H](C(=O)N[C@H](C(=O)NCC(=O)N[C@@H](CCC(N)=O)C(=O)N[C@@H](C)C(=O)N[C@H](C(=O)N[C@@H](CCC(N)=O)C(=O)N[C@H](C(=O)N[C@@H](C)C(=O)N[C@@H](CCCCN)C(=O)N[C@@H](CS)C(N)=O)[C@@H](C)CC)[C@@H](C)O)C(C)C)C(C)C)C(C)C)[C@@H](C)CC [OMN6] (H-MCKWKLFKKIEKVGQNIRDGIIKAGPAVAVVGQATQIAKC-NH2; N-terminus and C-terminus assumed),"Clinical signs (diarrhea, bloody diarrhea, stand-on-end hair, apathy or restlessness)",[1]; 5-day experiment,not observed
same,Mortality,[1]; 5-day experiment,not observed
same,Toxic or otherwise adverse effects,[1]; 5-day experiment,does not exert any toxic or otherwise adverse effects
same,Weight-loss,[1]; 5-day experiment,not observed
same,Hemolysis of erythrocytes (Free Hgb assay),[1]; day 5,No evidence of hemolysis
same,GFP leakage / lysis of bacteria,GFPuv E. coli,massive leaking of GFP; also recorded: extensive lysis
same,Bacterial survival/growth as percent of CTRL group,E. coli,less than 10%
same,Colony formation of Multi-Drug Resistant A. baumannii after plating,A. baumannii BAA-1793; OMN6 0.62 μM and 1.25 μM,no inhibition of growth
same,Colony formation of Multi-Drug Resistant A. baumannii after plating,"A. baumannii BAA-1793; OMN6 2.5 μM, 5 μM and 10 μM",void of colonies
